The values that follow come from BindingDB's records for doi:10.7270/Q2N58JV3 (Burnham Center For Chemical Genomics, 2010).

The assay has as its target Polyadenylate-binding protein 1 (Homo sapiens, UniProt P11940). As to the kind of experiment: PABP inhibition in translation initiation, SAR follow-up (AID 435018).

SMILES strings stand for the structures. Bounds are passed on as bounds.

Sequence of Polyadenylate-binding protein 1 (P11940 whole entry): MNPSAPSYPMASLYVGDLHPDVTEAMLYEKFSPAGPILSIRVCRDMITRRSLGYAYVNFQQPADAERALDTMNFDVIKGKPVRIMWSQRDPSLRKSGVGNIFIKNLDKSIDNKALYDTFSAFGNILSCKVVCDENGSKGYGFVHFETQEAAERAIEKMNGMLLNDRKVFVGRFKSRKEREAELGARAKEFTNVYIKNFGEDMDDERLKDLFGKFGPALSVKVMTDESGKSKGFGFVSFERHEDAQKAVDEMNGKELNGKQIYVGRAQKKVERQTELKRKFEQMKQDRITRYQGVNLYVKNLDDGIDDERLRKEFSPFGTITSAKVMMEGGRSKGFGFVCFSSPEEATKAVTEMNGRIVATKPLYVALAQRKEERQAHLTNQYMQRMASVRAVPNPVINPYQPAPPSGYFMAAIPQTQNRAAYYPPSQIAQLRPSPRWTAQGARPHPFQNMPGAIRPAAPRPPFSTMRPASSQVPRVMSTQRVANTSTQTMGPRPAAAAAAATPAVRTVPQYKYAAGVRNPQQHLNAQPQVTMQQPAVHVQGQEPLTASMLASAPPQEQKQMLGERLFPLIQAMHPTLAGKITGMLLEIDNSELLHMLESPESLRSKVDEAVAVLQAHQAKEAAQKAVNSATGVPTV

For the compound `COc1cc([CH+][N-]NC(=O)c2ccc(O)cc2)ccc1OCC(=O)Nc1cccc([N+](=O)[O-])c1`, the 50% inhibitory concentration (IC50) is above 100 µM.

As usually defined, the IC50 is the point on the concentration scale where inhibition reaches its midpoint. Read a low IC50 as higher potency.
